Data published in publication PMC3733449 (Bioorganic & medicinal chemistry, 2013).
Where two headings read alike, the source gives them in different places. Marks after values point to notes of the source that are not given here.

Assays:
[1] = published data; ref Leopoldo et al, 2002. [24]; cited from earlier work
[2] = target: human D3 dopamine receptor (Homo sapiens, UniProt P35462); test: Competitive radioligand binding, D3 dopamine receptor; conditions: D2:D3 Ki value ratio
[3] = target: T1, human D3 receptors expressed in stably transfected HEK 293 cells (Homo sapiens, UniProt P35462); test: Forskolin-dependent whole cell adenylyl cyclase inhibition assay, D3; type: cell-based; conditions: result in words
T1 sequence (P35462 whole entry): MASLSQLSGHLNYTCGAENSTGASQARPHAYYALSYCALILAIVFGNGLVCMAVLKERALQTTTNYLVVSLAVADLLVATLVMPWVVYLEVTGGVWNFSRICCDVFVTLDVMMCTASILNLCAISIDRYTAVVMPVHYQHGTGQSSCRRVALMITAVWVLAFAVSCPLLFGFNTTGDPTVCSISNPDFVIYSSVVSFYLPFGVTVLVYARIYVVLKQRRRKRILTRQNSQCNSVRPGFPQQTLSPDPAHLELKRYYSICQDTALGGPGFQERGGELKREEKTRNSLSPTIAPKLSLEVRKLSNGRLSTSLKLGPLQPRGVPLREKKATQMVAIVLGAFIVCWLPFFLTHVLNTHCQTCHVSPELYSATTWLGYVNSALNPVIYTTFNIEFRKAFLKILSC

[4] = target: T1, human D3 receptors expressed in stably transfected HEK 293 cells; conditions: result in words, previously reported; cited from earlier work

Chain of human D3 dopamine receptor (P35462 whole entry): as above

O=C(NCCCCN1CCN(c2cccc(Cl)c2Cl)CC1)c1ccc2c(c1)Cc1ccccc1-2 [NGB-2904]
Log P [1]: 6.94 ^h

COc1ccccc1N1CCCN(CCCCNC(=O)c2ccc(-c3ccsc3)cc2)CC1 [Compound 11a, N-(4-(4-(2-Methoxyphenyl)-1,4-diazepan-1-yl)butyl)-4-(thiophen-3-yl)benzamide]
D2/D3 (Ki ratio) [2]: > 100

COc1ccccc1N1CCCN(CCCCNC(=O)c2ccc(CCF)cc2)CC1 [Compound 11e, 4-(2-Fluoroethyl)-N-(4-(4-(2-methoxyphenyl)-1,4-diazepan-1-yl)butyl)benzamide]
efficacy class at D3 receptors [3]: strong partial agonist

COc1ccccc1N1CCN(CCCCNC(=O)c2ccc(CCF)cc2)CC1 [WC-44]
efficacy class at D3 receptors [4]: full agonist
